According to PubChem BioAssay (NCI):
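GI50 marks 50% less growth. TGI marks complete inhibition of growth.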

Assays:
Experiment in all cases: NCI tumour cell line growth inhibition, 384-well format
[1] = system: 786-0 renal
[2] = system: A498 renal
[3] = system: A549 NSCLC
[4] = system: ACHN renal
[5] = system: BT-549 breast
[6] = system: CAKI-1 renal
[7] = system: CCRF-CEM leukemia
[8] = system: COLO 205 colon
[9] = system: DU-145 prostate
[10] = system: EKVX NSCLC
[11] = system: HCC-2998 colon
[12] = system: HCT-116 colon
[13] = system: HCT-15 colon
[14] = system: HL-60(TB) leukemia
[15] = system: HOP-62 NSCLC
[16] = system: HOP-92 NSCLC
[17] = system: HS 578T breast
[18] = system: HT29 colon
[19] = system: IGROV1 ovarian
[20] = system: K-562 leukemia
[21] = system: KM12 colon
[22] = system: LOX IMVI melanoma
[23] = system: M14 melanoma
[24] = system: MALME-3M melanoma
[25] = system: MCF7 breast
[26] = system: MDA-MB-231 breast
[27] = system: MDA-MB-435 melanoma
[28] = system: MDA-MB-468 breast
[29] = system: MOLT-4 leukemia
[30] = system: NCI-H226 lung

COc1cc2nc(C)nc(N[C@H](C)c3cc(N)cc(C(F)(F)F)c3)c2cc1O[C@H]1CCOC1
GI50 [1]: 11.8 µM | TGI [1]: 24.2 µM | GI50 [2]: 8.87 µM | TGI [2]: 21.3 µM | GI50 [3]: 14.5 µM | TGI [3]: 27.8 µM | GI50 [4]: 13.8 µM | TGI [4]: 26.7 µM | GI50 [5]: 8.77 µM | TGI [5]: 21.2 µM | GI50 [6]: 1.97 µM | TGI [6]: 17 µM | GI50 [7]: 9.35 µM | TGI [7]: 21.3 µM | GI50 [8]: 14 µM | TGI [8]: 27.1 µM | GI50 [9]: 14.6 µM | TGI [9]: 27.9 µM | GI50 [10]: 2.73 µM | TGI [10]: 16.2 µM | GI50 [11]: 3.6 µM | TGI [11]: 15.9 µM | GI50 [12]: 10.5 µM | TGI [12]: 22.4 µM | GI50 [13]: 11.6 µM | TGI [13]: 23.9 µM | GI50 [14]: 3.91 µM | TGI [14]: 14.4 µM | GI50 [15]: 6.98 µM | TGI [15]: 20.1 µM | GI50 [16]: 0.0895 µM | TGI [16]: 5.19 µM | GI50 [17]: 2.1 µM | TGI [17]: 15.9 µM | GI50 [18]: 4.69 µM | TGI [18]: 16.2 µM | GI50 [19]: 8.69 µM | TGI [19]: 21.5 µM | GI50 [20]: 0.0364 µM | TGI [20]: 12.5 µM | GI50 [21]: 0.98 µM | TGI [21]: 17.1 µM | GI50 [22]: 13.4 µM | TGI [22]: 26.3 µM | GI50 [23]: 11.7 µM | TGI [23]: 23.9 µM | GI50 [24]: 8.63 µM | TGI [24]: 21.1 µM | GI50 [25]: 11.3 µM | TGI [25]: 23.5 µM | GI50 [26]: 13.5 µM | TGI [26]: 26.6 µM | GI50 [27]: 14.5 µM | TGI [27]: 27.6 µM | GI50 [28]: 1.35 µM | TGI [28]: 11.3 µM | GI50 [29]: 4.45 µM | TGI [29]: 17.4 µM | GI50 [30]: 3.24 µM | TGI [30]: 19.1 µM
